Patent US20030202967A1, “Development and use of human pancreatic cell lines” (priority 1995, published 2003)

Experiments:
[1] = system: CAT activity in LNSVoCL-infected 208F clones; assay type: cell-based, rat; conditions: some LNSVoCL-infected 208F clones also infected with pLISVHygL
Experimental: The ability of LNSVoCL and LoCRNLo to mediate inducible CAT expression was tested in rat 208F cells. The cells were infected by one of the two CAT-expressing vectors followed by the lac repressor-expressing vector pLISVHygL. Infected cells were selected in media containing G418 and hygromycin. CAT activity in LNSVoCL-infected 208F clones was determined in the presence or absence of IPTG.

TRM-1 cells = experiment: Insulin production from TRM-1 cells (radioimmunoassay); assay type: cell-based, human
Experimental: Levels of insulin and glucagon released into medium and the corresponding hormone content of acid ethanol extracts of sonicated cells were measured by radioimmunoassay (RIA) as described in Otonkoski, T., et al., J. Clin. Invest., 92:1459-1466 (1993).
Cells grown in this way were treated with nicotinamide for varying periods of time and assayed for insulin production using an extremely sensitive radioimmunoassay {Beattie, G., et al., J. Clin. Endocr. Metab., 78:1232-40 (1994)}.

[2] = system: epithelial cells in the human fetal pancreas (HFP); experiment: Mitogenic effect on human fetal pancreas epithelial cells; assay type: cell-based
Experimental: Sci., 05:753-64 (1993)}. Thus, in this example, the epithelial cells were initially grown in the extracellular matrix from 804G cells and HGF/SF in DMEM, supplemented with 10% fetal bovine serum, at 37° C. and 10% CO2. In this growth condition, the epithelial cells formed an islet-like cell cluster (ICC)-derived monolayer cultures having a doubling time of 48 hours. With such high percentage of mitotically active cells, the use of retroviral vectors which require mitotically active cells for successful integration of viral DNA become attractive. After retroviral infection, the epithelial cells were grown in DMEM, supplemented with 10% fetal bovine serum, at 37° C. and 10% CO2, without the extracellular matrix from 804G cells and HGF/SF. The use of HGF/SF offers an added advantage of selecting for epithelial over stromal cells. Stromal cells produce the growth factor HGF. […] Thus, HGF/SF treatment results in selective growth of the epithelial cells but also increases the mitotic index of the epithelial cells. The following method used the HGF/SF method.

CC(C)SC1O[C@H](CO)[C@H](O)[C@H](O)[C@H]1O (stereo partly shown) [IPTG, isopropyl thiogalactopyranoside]
Increase in CAT activity in the presence of IPTG over its absence [1]: 80-100 fold

NC(=O)c1cccnc1 [Nic., nicotinamide]
Insulin production Day 0 (TRM-1 cells; TRM-1 suspension culture +10 mM Nic., Day 0): 0 μU insulin/48 hr/ml medium | Insulin production Day 5 (TRM-1 cells; TRM-1 suspension culture +10 mM Nic., Day 5): 0 μU insulin/48 hr/ml medium | Insulin production Day 7 (TRM-1 cells; TRM-1 suspension culture +10 mM Nic., Day 7): 0 μU insulin/48 hr/ml medium | Insulin production Day 11 (TRM-1 cells; TRM-1 suspension culture +10 mM Nic., Day 11): 2.8 μU insulin/48 hr/ml medium | Insulin production Day 13 (TRM-1 cells; TRM-1 suspension culture +10 mM Nic., Day 13): 4.0 μU insulin/48 hr/ml medium | Insulin production Day 17 (TRM-1 cells; TRM-1 suspension culture +10 mM Nic., Day 17): 5.6 μU insulin/48 hr/ml medium | Insulin expression in suspension cultures (TRM-1 cells; TRM-1 suspension cultures, after 11 days of exposure): small amounts of insulin

Cn1c(=O)c2[nH]cnc2n(C)c1=O [theophylline]
Stimulation of insulin production by treatment (TRM-1 cells; TRM-1 cells): not stimulated

HGF/SF: growth factor/scatter factor, ligand of the met receptor
Mitogenic effect [2]: strongly mitogenic
